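Exposure lasted 48 hours, with cells grown in 96-well plates and compounds tested at five concentrations. At the GI50, growth is halved. TGI: concentration producing complete growth inhibition.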
Tests used:
Experiment in all cases: NCI-60 cell line screen, 48 h
[1] = tested on: NCI-H226 lung
[2] = tested on: NCI-H23 lung
[3] = tested on: NCI-H460 lung
[4] = tested on: NCI-H522 lung
[5] = tested on: OVCAR-3 ovarian
[6] = tested on: OVCAR-4 ovarian
[7] = tested on: OVCAR-5 ovarian
[8] = tested on: OVCAR-8 ovarian
[9] = tested on: PC-3 prostate
[10] = tested on: RPMI-8226 leukemia
[11] = tested on: RXF 393 renal
[12] = tested on: SF-268 CNS
[13] = tested on: SF-295 CNS
[14] = tested on: SF-539 CNS
[15] = tested on: SK-MEL-2 melanoma
[16] = tested on: SK-MEL-28 melanoma
[17] = tested on: SK-MEL-5 melanoma
[18] = tested on: SK-OV-3 ovarian
[19] = tested on: SN12C renal
[20] = tested on: SNB-19 CNS
[21] = tested on: SNB-75 CNS
[22] = tested on: SR leukemia
[23] = tested on: SW-620 colon
[24] = tested on: T-47D breast
[25] = tested on: TK-10 renal
[26] = tested on: U251 CNS
[27] = tested on: UACC-257 melanoma
[28] = tested on: UACC-62 melanoma
[29] = tested on: UO-31 renal

CN1CCCN(Cc2ccc(C(=O)Nc3cccc(Nc4ccc5cc(O)ccc5n4)c3)cc2C(F)(F)F)CC1 showed a TGI [1] of 28.9 µM, a GI50 [2] of 16.8 µM and a TGI [2] of 32.1 µM. For the same molecule, the GI50 [3] was 18 µM, the TGI [3] was 36.7 µM and the GI50 [4] was 17 µM. For the same molecule, the TGI [4] was 32 µM, the GI50 [5] was 16.3 µM and the TGI [5] was 29.9 µM. The GI50 [6] was 15 µM, the TGI [6] was 30 µM and the GI50 [7] was 15.3 µM. For the same molecule, the TGI [7] was 31 µM, the GI50 [8] was 18.9 µM and the TGI [8] was 37.2 µM. It also gave a GI50 [9] of 13.1 µM, a TGI [9] of 28.5 µM and a GI50 [10] of 11.4 µM. It also gave a TGI [10] of 35.9 µM, a GI50 [11] of 12.5 µM and a TGI [11] of 26.1 µM. For the same molecule, the GI50 [12] was 17.3 µM, the TGI [12] was 36.1 µM and the GI50 [13] was 17.3 µM. It also gave a TGI [13] of 33.4 µM, a GI50 [14] of 11.3 µM and a TGI [14] of 24 µM. It also gave a GI50 [15] of 17.2 µM, a TGI [15] of 31.8 µM and a GI50 [16] of 13.9 µM. For the same molecule, the TGI [16] was 29 µM, the GI50 [17] was 16.1 µM and the TGI [17] was 29.6 µM. It also gave a GI50 [18] of 17.6 µM, a TGI [18] of 32 µM and a GI50 [19] of 17.3 µM. It also gave a TGI [19] of 31.7 µM, a GI50 [20] of 17 µM and a TGI [20] of 31.7 µM. For the same molecule, the GI50 [21] was 1.17 µM, the TGI [21] was 16.7 µM and the GI50 [22] was 1.89 µM. It also gave a TGI [22] of 5.3 µM, a GI50 [23] of 14.5 µM and a TGI [23] of 28.9 µM. The GI50 [24] was 15.8 µM, the TGI [24] was 33.3 µM and the GI50 [25] was 18.5 µM. For the same molecule, the TGI [25] was 32.8 µM, the GI50 [26] was 14.8 µM and the TGI [26] was 30.6 µM. For the same molecule, the GI50 [27] was 14.7 µM, the TGI [27] was 29.1 µM and the GI50 [28] was 15.9 µM. The TGI [28] was 30 µM, the GI50 [29] was 15.2 µM and the TGI [29] was 29.7 µM.
